Assay results published in ChEMBL document CHEMBL5380816, “Inclusion of Nitrofurantoin into the Realm of Cancer Chemotherapy via Biology-Oriented Synthesis and Drug Repurposing” (J Med Chem, 2023).
Activity calls are given as the source filed them. No cut-off for these calls is given here.

Tests used:
Caco-2 [1] = experiment: Induction of apoptosis in human Caco-2 cells assessed as increase in Bax expression level relative to control; type: functional
MCF7 [2] = experiment: Induction of apoptosis in human MCF7 cells assessed as increase in Bax expression level relative to control; type: functional
HeLa [3] = experiment: Induction of apoptosis in human HeLa cells assessed as viable cells incubated at 0.097 uM for 72 hrs by annexin V-FITC based propidium iodide dual staining assay (reference value: 97.23%); type: functional; conditions: read-out: Activity
HepG2 [4] = experiment: Induction of apoptosis in human HepG2 cells assessed as late apoptotic cells by measuring orange to red patch incubated at 0.097 uM for 72 hrs by acridine orange-ethidium bromide dual staining based fluorescence microscopic analysis; type: functional, cell-based
Caco-2 [5] = experiment: Induction of apoptosis in human Caco-2 cells assessed as total apoptotic cells incubated at 0.097 uM for 72 hrs by annexin V-FITC based propidium iodide dual staining assay (reference value: 0.04 +/- 0.005%); type: functional
MCF7 [6] = experiment: Anticancer activity against human MCF7 cells assessed as smaller cells incubated at 0.097uM for 72 hrs by phase contrast inverted microscopic analysis; type: functional, cell-based
HeLa [7] = experiment: Anticancer activity against human HeLa cells assessed as absence of normal spindle shape incubated at 0.097uM for 72 hrs by phase contrast inverted microscopic analysis; type: functional, cell-based
HeLa [8] = experiment: Anticancer activity against human HeLa cells assessed as smaller cells incubated at 0.097uM for 72 hrs by phase contrast inverted microscopic analysis; type: functional, cell-based
MCF7 [9] = experiment: Induction of oxidative stress in human MCF7 cells assessed as cell death by measuring redox alteration fluorescence incubated at 0.11 uM for 72 hrs in presence of dihydro dichlorofluorescein diacetate by DCFH-DA based flow cytometric analysis relative to control; type: functional
HepG2 [10] = experiment: Induction of apoptosis in human HepG2 cells assessed as viable cells incubated at 0.11 uM for 72 hrs by annexin V-FITC based propidium iodide dual staining assay (reference value: 97.27%); type: functional; conditions: read-out: Activity
HepG2 [11] = experiment: Anticancer activity against human HepG2 cells assessed as losing contact with neighbouring cells incubated at 0.11 uM for 72 hrs by phase contrast inverted microscopic analysis; type: functional, cell-based
HepG2 [12] = experiment: Anticancer activity against human HepG2 cells assessed as absence of normal spindle shape incubated at 0.11 uM for 72 hrs by phase contrast inverted microscopic analysis; type: functional, cell-based
HepG2 [13] = experiment: Induction of apoptosis in human HepG2 cells assessed as necrotic cells incubated at 0.11 uM for 72 hrs by annexin V-FITC based propidium iodide dual staining assay (reference value: 0.33%); type: functional
HepG2 [14] = experiment: Anticancer activity against human HepG2 cells assessed as cell shrinkage incubated at 0.11 uM for 72 hrs by phase contrast inverted microscopic analysis; type: functional, cell-based
Caco-2 [15] = experiment: Induction of apoptosis in human Caco-2 cells assessed as late apoptotic cells by measuring orange to red patch incubated at 0.11 uM for 72 hrs by acridine orange-ethidium bromide dual staining based fluorescence microscopic analysis; type: functional, cell-based
HeLa [16] = experiment: Induction of apoptosis in human HeLa cells assessed as late apoptotic cells incubated at 0.11 uM for 72 hrs by annexin V-FITC based propidium iodide dual staining assay (reference value: 0%); type: functional
MCF7 [17] = experiment: Induction of apoptosis in human MCF7 cells assessed as early apoptotic cells incubated at 0.11 uM for 72 hrs by annexin V-FITC based propidium iodide dual staining assay (reference value: 0.06%); type: functional
Homo sapiens = species: Homo sapiens; experiment: Selectivity index, ratio IC50 for human MDA-MB-231 cells to IC50 for human MCF7 cells
Caco-2 [18] = experiment: Induction of apoptosis in human Caco-2 cells assessed as viable cells incubated at 0.098 uM for 72 hrs by annexin V-FITC based propidium iodide dual staining assay (reference value: 99.89%); type: functional; conditions: read-out: Activity
HeLa [19] = experiment: Anticancer activity against human HeLa cells assessed as absence of normal spindle shape incubated at 0.098uM for 72 hrs by phase contrast inverted microscopic analysis; type: functional, cell-based
MCF7 [20] = experiment: Anticancer activity against human MCF7 cells assessed as smaller cells incubated at 0.098uM for 72 hrs by phase contrast inverted microscopic analysis; type: functional, cell-based
HeLa [21] = experiment: Induction of apoptosis in human HeLa cells assessed as caspase3/7 activation at 0.098 uM using caspase-glo 3/7 as substrate relative to control; type: functional
HepG2 [22] = experiment: Anticancer activity against human HepG2 cells assessed as round cells incubated at 0.098uM for 72 hrs by phase contrast inverted microscopic analysis; type: functional, cell-based
HeLa [23] = experiment: Induction of apoptosis in human HeLa cells assessed as pro-oxidant effect by measuring free radical generation measured at 0.098 uM after 72 hrs; type: functional, cell-based
MCF7 [24] = experiment: Induction of apoptosis in human MCF7 cells assessed as late apoptotic cells by measuring orange to red patch incubated at 0.098 uM for 72 hrs by acridine orange-ethidium bromide dual staining based fluorescence microscopic analysis; type: functional, cell-based
Caco-2 [25] = experiment: Induction of apoptosis in human Caco-2 cells assessed as early apoptotic cells incubated at 0.098 uM for 72 hrs by annexin V-FITC based propidium iodide dual staining assay (reference value: 0.07%); type: functional
MCF7 [26] = experiment: Induction of apoptosis in human MCF7 cells assessed as early apoptotic cells incubated at 0.017 uM for 72 hrs by annexin V-FITC based propidium iodide dual staining assay (reference value: 0.06%); type: functional
MCF7 [27] = experiment: Induction of apoptosis in human MCF7 cells assessed as late apoptotic cells incubated at 0.017 uM for 72 hrs by annexin V-FITC based propidium iodide dual staining assay (reference value: 0.01%); type: functional
HepG2 [28] = experiment: Induction of apoptosis in human HepG2 cells assessed as necrotic cells incubated at 0.017 uM for 72 hrs by annexin V-FITC based propidium iodide dual staining assay (reference value: 0.33%); type: functional

Structure (SMILES): NS(=O)(=O)c1ccc(-n2cc(CN3C(=O)CN(/N=C/c4ccc([N+](=O)[O-])o4)C3=O)nn2)cc1
- Activity (Caco-2 [1]): 300%
- Activity (MCF7 [2]): 300%
- viability at 0.097 µM (HeLa [3]): 43.3%
- Activity (HepG2 [4]): Active
- Activity (Caco-2 [5]): 36.26%
- Activity (MCF7 [6]): Active
- Activity (HeLa [7]): Active
- Activity (HeLa [8]): Active
- Activity (MCF7 [9]): 51.08%

Structure (SMILES): C#CCN1C(=O)CN(/N=C/c2ccc([N+](=O)[O-])o2)C1=O
- viability at 0.11 µM (HepG2 [10]): 32.1%
- Activity (HepG2 [11]): Active
- Activity (HepG2 [12]): Active
- Activity (HepG2 [13]): 3.66%
- Activity (HepG2 [14]): Active
- Activity (Caco-2 [15]): Active
- Activity (HeLa [16]): 22.69%
- Activity (MCF7 [17]): 7.55%
- Ratio IC50 (Homo sapiens): 2

Structure (SMILES): O=C(CN1C(=O)CN(/N=C/c2ccc([N+](=O)[O-])o2)C1=O)c1ccc(Cl)cc1
- viability at 0.098 µM (Caco-2 [18]): 60.6%
- Activity (HeLa [19]): Active
- Activity (MCF7 [20]): Active
- Activity (HeLa [21]): 75%
- Activity (HepG2 [22]): Active
- Activity (HeLa [23]): Active
- Activity (MCF7 [24]): Active
- Activity (Caco-2 [25]): 8.53%

Structure (SMILES): O=c1[nH]cc(F)c(=O)[nH]1 [FLUOROURACIL]
- Activity (MCF7 [26]): 6.16%
- Activity (MCF7 [27]): 2.26%
- Activity (HepG2 [28]): 1.56%
